What all share (assay): inhibition of tumour cell growth, NCI panel, 48 h
The subject of assay [1] is SF-539 CNS.
Assay [2] concerns RPMI-8226 leukemia.
In assay [3] the test system is RXF 393 renal.
Assay [4] concerns DU-145 prostate.
Assay [5] has as its system KM12 colon.
Assay [6] deals with COLO 205 colon.
In assay [7] the test system is UACC-257 melanoma.
In assay [8] the test system is U251 CNS.
Assay [9] has as its system IGROV1 ovarian.
Assay [10] deals with SNB-75 CNS.

Values joined by “and” are separate entries in the source; they are usually repeats but may differ in a detail not shown here. Identical values can stand only once.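 Interpolation was linear, between the two tested concentrations surrounding the appropriate level; five concentrations were tested over 48 hours in 96-well plates. The concentration for 50% growth inhibition is given as GI50. TGI marks complete inhibition of growth.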

`O=Cc1ccc(-c2cc(C=O)c(-c3cccs3)[nH]2)s1`: the TGI in assay [1] is 75 µM; in assay [2], 75 µM and > 100 µM; in [3] it was 75 µM and > 100 µM; in [4], 75 µM and > 100 µM; in assay [5], 75 µM and > 100 µM; in assay [6], 75 µM and 88.6 µM. Moreover, the TGI is 75 µM and > 100 µM in [7]; 62.9 µM and > 100 µM in [8]; 75 µM and > 100 µM in assay [9]; 52.2 µM and > 100 µM in assay [10]. Also, the GI50 was 79.1 µM in assay [2]; 23.3 µM in assay [3]; 50.8 µM in [5]; > 100 µM in assay [7]; > 100 µM in assay [8]; 30.8 µM in assay [9]. The GI50 in assay [10] was 29.5 µM.

`COc1cc(/C=C/C(=O)CC(=O)/C=C/c2cc(OC)c(OC)c(OC)c2)cc(OC)c1OC`: the GI50 in assay [1] was 4.85 µM; in [3] it was 3.09 µM; in assay [4], 6.71 µM; in assay [5], 4.58 µM; in assay [6] it was 6.93 µM; in assay [7], 3.23 µM. For the same compound, the values for the GI50 in assay [9] and in assay [10] were 2.83 µM and 3.89 µM, respectively. The TGI was 71.8 µM in assay [1]; 8.84 µM in assay [3]; 31.9 µM in assay [4]; 63 µM in assay [5]; > 100 µM in assay [6]; 31.1 µM in assay [7]. For the same compound, the TGI was 8.22 µM in assay [9] and 50.5 µM in [10].

Take `CC1=C2[C@@H](CC1)[C@]1(C)O[C@@](C3CCCCC3)(C[C@H]1OC(=O)CO)[C@H]2OC(=O)/C=C/c1ccccc1`: the GI50 in [1] was 12.8 µM; in assay [2] it was 9.51 µM; in assay [3], 0.029 µM; in assay [4], 9.68 µM; in assay [5] it was 8.34 µM; in assay [6], 8.06 µM. Further, the GI50 in assay [7] is 12.3 µM; in assay [8] it was 7.72 µM; in assay [9] it was 18.7 µM; in assay [10], 7.94 µM. Besides, the TGI in assay [1] was 27.7 µM; in [2], 33.2 µM; in assay [3], 0.483 µM; in [4], 23.4 µM; in assay [5], 24.7 µM; in [6], 24.3 µM. The TGI in [7] worked out at 26 µM; in assay [8] it was 20.5 µM; in [9], 44.1 µM; in assay [10], 34.8 µM.

On to `CC(=O)c1c(C)[nH]c(-c2nc3ccc(N4CCN(C)CC4)cc3[nH]2)c1-c1ccc(OCC2CCOCC2)cc1`, for which the GI50 in assay [1] is 1.24 µM; in assay [2], 0.251 µM; in assay [3] it was 0.696 µM; in [4], 5.09 µM; in [5], 0.924 µM; in [6] it was 0.334 µM. Further, the GI50 in assay [7] is 0.789 µM; in assay [8] it was 2.1 µM; in [9], 0.854 µM; in [10] it was 0.0365 µM. In addition, the TGI amounted to 12.3 µM in assay [1]; 1.42 µM in [2]; 2.83 µM in [3]; 24.8 µM in [4]; 14.6 µM in assay [5]; 4.65 µM in assay [6]. For the same compound, the TGI amounted to 4.42 µM in [7], 17.5 µM in [8], 12.8 µM in [9] and 0.887 µM in assay [10].

In the case of `CC(C)c1ccc(C(=O)Nc2nc3ccc(O)cc3s2)cc1`, the GI50 in [1] was 1.22 µM; in assay [2], 2.74 µM; in assay [3] it was 2.6 µM; in assay [4], 1.7 µM; in assay [5], 0.262 µM; in assay [6], 3.58 µM. Moreover, the GI50 in [7] was 1.51 µM; in assay [8], 9.32 µM; in [9] it was 0.361 µM; in assay [10], 9.18 µM. Further, the TGI in [1] is 11.6 µM; in assay [2] it was > 100 µM; in [3] it was 13.9 µM; in assay [4], > 100 µM; in assay [5], > 100 µM; in assay [6], > 100 µM. Further, the TGI was > 100 µM in assay [7], > 100 µM in assay [8], > 100 µM in assay [9] and 73.2 µM in [10].

As for `CC[C@H](NC(=O)[C@H](C)NC)C(=O)N1C[C@@H](O)C[C@H]1Cc1c(-c2[nH]c3cc(F)ccc3c2C[C@@H]2C[C@H](O)CN2C(=O)[C@H](CC)NC(=O)[C@H](C)NC)[nH]c2cc(F)ccc12`, the GI50 in assay [1] was < 0.01 µM; in assay [2], 12.8 µM; in assay [3], 2.27 µM; in assay [4], > 100 µM; in assay [5], > 100 µM; in assay [6], > 55.8 µM. The GI50 in [7] was 0.0431 µM; in [8] it was 93.2 µM; in assay [10], 2.65 µM. In addition, the TGI in [1] was 0.146 µM; in assay [2], 98 µM; in assay [3], > 20.1 µM; in assay [4], > 100 µM; in assay [5], > 100 µM; in assay [6] it was > 100 µM. The TGI in assay [7], in [8] and in assay [10] was > 100 µM each time.

As for `COc1ccc(N2C(=O)CC(Cl)C2=O)cc1` (stereo not drawn), the TGI is 32.5 µM in assay [1]; 37.2 µM in assay [2]; 40.7 µM in assay [3]; > 100 µM in assay [4]; 30 µM in [6]; 29.7 µM in [7]. Moreover, the TGI in assay [8], in assay [9] and in [10] was > 100 µM each time.

`CCOC(=O)C(Cc1c[nH]c2ccc(N)cc12)(NC(C)=O)C(=O)OCC`: the GI50 in assay [1] was > 1000 µM; in [3], > 1000 µM; in assay [4], > 1000 µM; in assay [5], > 1000 µM; in assay [6] it was 849 µM; in [7], > 1000 µM. For the same compound, the GI50 in [8], in assay [9] and in assay [10] was > 1000 µM each time. Moreover, the TGI in assay [1], in assay [3], in [4], in assay [5], in assay [6] and in [7] was > 1000 µM throughout. The TGI in assay [8], in assay [9] and in assay [10] was > 1000 µM in each case.
